Measured values published in patent US20120270844A1, “METHODS FOR TREATING ALZHEIMER'S DISEASE” (aFRAXis, Inc., priority 2009, published 2012).

Key:
Format in all cases: biochemical
PAK3 = PAK3 (Homo sapiens, UniProt O75914); assay: Z'Lyte fluorescence-based (FRET) PAK kinase assay, PAK3; conditions: 100 μM ATP
Method: (§1) A fluorescence-based assay format is used to determine IC50 values of test compounds in vitro. Purified PAK kinase is incubated with ATP, and a test compound at various concentrations and a substrate peptide containing two fluorophores. In a second step, the reaction mix is incubated with a site-specific protease that cleaves non-phosphorylated bat not phosphorylated substrate peptide, disrupting the FRET signal generated by the two fluorophores in the cleaved peptide (Z′Lyte™ Kinase assay platform; Life Technologies).
(§2) Reagents: 50 mM HEPES, pH 7.5; 0.01% BRIJ-35; 10 nM MgCl1; 1 mM EGTA, 2 uM substrate peptide Ser/Thr20 (proprietary Life Technologies Sequence), PAK enzyme [2.42-30.8 ng for PAK1, 0.29-6 ng for PAK2, 1.5-20 ng for PAK3 and 0.1-0.86 ng for PAK4; actual enzyme amounts depend on lot activity of the enzyme preparation]
(§3) Test compounds are dissolved in DMSO at various concentrations; the final DMSO concentration in the assay reaction is 1%.
(§4) ATP concentration at Kin apparent is used in the assay [50 ┌M ATP for PAK1 assay, 75 ┌M ATP for PAK2 assay, 100 μM ATP for PAK3 assay, 5 μM ATP for PAK4 assay] in a total assay volume of 10 μl. Assay reactions are incubated at room temperature for 1 hr. Following the kinase reaction, 5 μl of 1:256 dilution of development solution A (Life Technologies) is added and the reaction mix is incubated for an additional 1 hr at room temperature.
(§5) Plates are analyzed in a standard fluorescence plate reader (Tecan or equivalent) using an excitation wavelength of 400 nn and emission wavelengths of 445 nm and 520 nm.
(§6) Inhibition of kinase reaction is determined by emission ratio=emission@445 nm/emission@520 nm
as §1, with “non-phosphorylated but” for “non-phosphorylated bat”, “peptide (Z'Lyte™” for “peptide (Z′Lyte™”, “assay platform” for “assay platform;”
as §2, with “mM MgCl2;” for “nM MgCl1;”
as §4, with “at Km” for “at Kin”, “[50 μMATP” for “[50 ┌M ATP”, “75 µM” for “75 ┌M”, “[…]” for “10 μl.”, “kinase reaction.” for “kinase reaction,”, “[…]” for “5 μl”
(§7) Plates are analyzed in a standard fluorescence plate reader (Teem or equivalent) using an excitation wavelength of 400 nm and emission wavelengths of 445 nm and 520 nm.

PAK2 = PAK2 (Homo sapiens, UniProt Q13177); assay: Z'Lyte fluorescence-based (FRET) PAK kinase assay, PAK2
Method: as §1, §2, §3, §4, §5, §6
as §1, with “non-phosphorylated but” for “non-phosphorylated bat”, “peptide (Z'Lyte™” for “peptide (Z′Lyte™”, “assay platform” for “assay platform;”
as §2, with “mM MgCl2;” for “nM MgCl1;”
as §4, with “at Km” for “at Kin”, “[50 μMATP” for “[50 ┌M ATP”, “75 µM” for “75 ┌M”, “[…]” for “10 μl.”, “kinase reaction.” for “kinase reaction,”, “[…]” for “5 μl”
as §7

PAK4 = PAK4 (Homo sapiens, UniProt O96013); assay: Z'Lyte fluorescence-based (FRET) PAK kinase assay, PAK4; conditions: 5 μM ATP
Method: as §1, §2, §3, §4, §5, §6
as §1, with “non-phosphorylated but” for “non-phosphorylated bat”, “peptide (Z'Lyte™” for “peptide (Z′Lyte™”, “assay platform” for “assay platform;”
as §2, with “mM MgCl2;” for “nM MgCl1;”
as §4, with “at Km” for “at Kin”, “[50 μMATP” for “[50 ┌M ATP”, “75 µM” for “75 ┌M”, “[…]” for “10 μl.”, “kinase reaction.” for “kinase reaction,”, “[…]” for “5 μl”
as §7

PAK1 = PAK1 (Homo sapiens, UniProt Q13153); assay: Z'Lyte fluorescence-based (FRET) PAK kinase assay, PAK1; conditions: 50 μM ATP
Method: as §1, §2, §3, §4, §5, §6
as §1, with “non-phosphorylated but” for “non-phosphorylated bat”, “peptide (Z'Lyte™” for “peptide (Z′Lyte™”, “assay platform” for “assay platform;”
as §2, with “mM MgCl2;” for “nM MgCl1;”
as §4, with “at Km” for “at Kin”, “[50 μMATP” for “[50 ┌M ATP”, “75 µM” for “75 ┌M”, “[…]” for “10 μl.”, “kinase reaction.” for “kinase reaction,”, “[…]” for “5 μl”
as §7

[1] = Table 1 of Example 100, 75 μM ATP
[2] = Table 1 of Example 29 (own compound numbering)
[3] = Table 1 of Example 29 (own compound numbering), 75 µM ATP

PAK2, sequence (Q13177 whole entry): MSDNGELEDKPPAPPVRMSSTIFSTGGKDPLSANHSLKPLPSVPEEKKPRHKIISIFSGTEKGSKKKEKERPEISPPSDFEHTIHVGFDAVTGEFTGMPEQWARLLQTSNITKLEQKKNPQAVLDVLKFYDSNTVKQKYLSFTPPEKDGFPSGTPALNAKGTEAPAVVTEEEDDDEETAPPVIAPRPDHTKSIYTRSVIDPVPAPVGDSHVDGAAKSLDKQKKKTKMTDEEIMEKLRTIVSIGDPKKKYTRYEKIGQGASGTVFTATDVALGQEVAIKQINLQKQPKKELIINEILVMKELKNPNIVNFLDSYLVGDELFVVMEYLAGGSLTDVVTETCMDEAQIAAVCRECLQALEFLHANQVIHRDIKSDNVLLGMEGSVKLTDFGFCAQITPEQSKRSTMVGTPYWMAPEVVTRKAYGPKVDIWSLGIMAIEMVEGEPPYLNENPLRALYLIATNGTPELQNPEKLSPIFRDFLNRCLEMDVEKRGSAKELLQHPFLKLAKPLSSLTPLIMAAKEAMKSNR
PAK4, sequence (O96013 whole entry): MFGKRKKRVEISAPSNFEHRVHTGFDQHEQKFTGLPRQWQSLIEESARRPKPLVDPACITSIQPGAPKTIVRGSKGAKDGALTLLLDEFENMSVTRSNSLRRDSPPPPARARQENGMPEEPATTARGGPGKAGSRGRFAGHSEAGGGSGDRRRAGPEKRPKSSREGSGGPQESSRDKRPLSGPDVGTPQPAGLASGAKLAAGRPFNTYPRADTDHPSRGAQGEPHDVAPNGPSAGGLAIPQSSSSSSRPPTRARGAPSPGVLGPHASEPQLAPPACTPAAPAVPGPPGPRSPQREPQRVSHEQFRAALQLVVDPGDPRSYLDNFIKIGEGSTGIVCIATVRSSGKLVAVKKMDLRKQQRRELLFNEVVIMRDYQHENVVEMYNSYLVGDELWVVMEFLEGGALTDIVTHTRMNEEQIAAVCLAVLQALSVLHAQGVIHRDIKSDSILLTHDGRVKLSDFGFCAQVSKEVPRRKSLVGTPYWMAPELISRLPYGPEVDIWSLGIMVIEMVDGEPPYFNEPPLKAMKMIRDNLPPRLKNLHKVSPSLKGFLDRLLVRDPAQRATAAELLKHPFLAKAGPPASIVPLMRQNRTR
PAK1, sequence (Q13153 whole entry): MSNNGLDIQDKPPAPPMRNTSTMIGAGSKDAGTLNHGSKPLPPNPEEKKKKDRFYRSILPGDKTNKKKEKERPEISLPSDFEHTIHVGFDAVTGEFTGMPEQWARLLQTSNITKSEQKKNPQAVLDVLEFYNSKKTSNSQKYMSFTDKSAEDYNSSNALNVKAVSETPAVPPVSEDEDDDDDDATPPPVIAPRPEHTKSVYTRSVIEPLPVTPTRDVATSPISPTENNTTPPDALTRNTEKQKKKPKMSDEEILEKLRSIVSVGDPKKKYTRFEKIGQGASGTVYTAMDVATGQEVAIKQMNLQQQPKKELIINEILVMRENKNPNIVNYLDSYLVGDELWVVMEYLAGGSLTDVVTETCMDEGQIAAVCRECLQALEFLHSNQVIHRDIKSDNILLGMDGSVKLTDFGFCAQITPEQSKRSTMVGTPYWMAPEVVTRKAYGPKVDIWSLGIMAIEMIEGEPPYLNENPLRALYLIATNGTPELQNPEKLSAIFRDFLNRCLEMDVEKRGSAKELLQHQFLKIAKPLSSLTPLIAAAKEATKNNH
PAK3, sequence (O75914 whole entry): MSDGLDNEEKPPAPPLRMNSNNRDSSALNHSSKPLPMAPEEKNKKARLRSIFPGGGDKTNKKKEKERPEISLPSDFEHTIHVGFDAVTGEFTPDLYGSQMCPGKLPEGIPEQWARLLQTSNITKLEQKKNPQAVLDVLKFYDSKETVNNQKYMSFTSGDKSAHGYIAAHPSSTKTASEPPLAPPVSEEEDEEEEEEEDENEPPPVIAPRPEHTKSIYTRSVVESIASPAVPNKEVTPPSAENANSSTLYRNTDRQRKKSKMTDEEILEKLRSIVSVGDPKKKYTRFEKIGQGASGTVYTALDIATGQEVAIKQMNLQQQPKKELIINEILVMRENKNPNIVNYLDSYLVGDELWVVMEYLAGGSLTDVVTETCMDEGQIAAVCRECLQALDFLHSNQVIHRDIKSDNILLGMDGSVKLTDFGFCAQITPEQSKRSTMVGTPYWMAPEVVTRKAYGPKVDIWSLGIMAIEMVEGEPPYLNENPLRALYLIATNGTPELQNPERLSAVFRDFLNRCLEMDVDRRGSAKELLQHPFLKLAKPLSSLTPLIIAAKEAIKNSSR

SMILES | IC50 (PAK3; Table 1 of Example 100) [µM] | IC50 (PAK2; [1]) [µM] | IC50 (PAK4; Table 1 of Example 100) [µM] | IC50 (PAK1; Table 1 of Example 100) [µM] | IC50 (PAK3; [2]) [µM] | IC50 (PAK2; [3]) [µM] | IC50 (PAK4; [2]) [µM] | IC50 (PAK1; [2]) [µM]
Cc1cc(F)ccc1Cn1c(=O)ccc2cnc(Nc3ccc(N4CCN(C)CC4)cc3)nc21 [Compound 45] | 1 to 10 | 1 to 10 | 1 to 10 | 1 to 10 |  |  |  | 
Cc1ccc(C)c(Cn2c(=O)ccc3cnc(Nc4ccc(N5CCN(C)CC5)cc4)nc32)c1 [Compound 46] | 1 to 10 | 1 to 10 | 1 to 10 | 1 to 10 |  |  |  | 
CC(c1ccccc1)n1c(=O)ccc2cnc(Nc3ccc(N4CCN(C)CC4)cc3)nc21 (stereo not shown) [Compound 48] | > 10 | 1 to 10 | 1 to 10 | 1 to 10 |  |  |  | 
CN1CCN(c2ccc(Nc3ncc4ccc(=O)n(CCc5ccccc5)c4n3)cc2)CC1 [Compound 49] | 1 to 10 | < 1 | < 1 | < 1 |  |  |  | 
CN1CCN(c2ccc(Nc3ncc4ccc(=O)n(CC(=O)c5ccccc5)c4n3)cc2)CC1 [Compound 50] | 1 to 10 | 1 to 10 | 1 to 10 | 1 to 10 |  |  |  | 
Cc1cccnc1Cn1c(=O)ccc2cnc(Nc3ccc(N4CCN(C)CC4)cc3)nc21 [Compound 52] | > 10 | 1 to 10 | 1 to 10 | 1 to 10 |  |  |  | 
CN1CCN(c2ccc(Nc3ncc4ccc(=O)n(Cc5ccccc5-n5cccn5)c4n3)cc2)CC1 [Compound 53] | 1 to 10 | 1 to 10 | 1 to 10 | < 1 |  |  |  | 
COc1ccc(F)cc1Cn1c(=O)ccc2cnc(Nc3ccc(N4CCN(C)CC4)cc3)nc21 [Compound 54] | 1 to 10 | 1 to 10 | 1 to 10 | < 1 |  |  |  | 
CC(c1ccccc1)n1c(=O)ccc2cnc(Nc3ccc(N4CCN(C)CC4)cc3)nc21 (stereo not shown) [Compound 102] |  |  |  |  | > 10 | 1 to 10 | 1 to 10 | 1 to 10
CN1CCN(c2ccc(Nc3ncc4ccc(=O)n(CCc5ccccc5)c4n3)cc2)CC1 [Compound 103] |  |  |  |  | 1 to 10 | < 1 | < 1 | < 1
CN1CCN(c2ccc(Nc3ncc4ccc(=O)n(CC(=O)c5ccccc5)c4n3)cc2)CC1 [Compound 104] |  |  |  |  | 1 to 10 | 1 to 10 | 1 to 10 | 1 to 10
Cc1cccnc1Cn1c(=O)ccc2cnc(Nc3ccc(N4CCN(C)CC4)cc3)nc21 [Compound 106] |  |  |  |  | > 10 | 1 to 10 | 1 to 10 | 1 to 10
CN1CCN(c2ccc(Nc3ncc4ccc(=O)n(Cc5ccccc5-n5cccn5)c4n3)cc2)CC1 [Compound 107] |  |  |  |  | 1 to 10 | 1 to 10 | 1 to 10 | < 1
COc1ccc(F)cc1Cn1c(=O)ccc2cnc(Nc3ccc(N4CCN(C)CC4)cc3)nc21 [Compound 108] |  |  |  |  | 1 to 10 | 1 to 10 | 1 to 10 | < 1
CN1CCN(c2ccc(Nc3ncc4ccc(=O)n(Cc5c(O)cccc5Cl)c4n3)cc2)CC1 [Compound 109] |  |  |  |  | 1 to 10 | < 1 | < 1 | < 1
CN1CCCC(Nc2ccc(Nc3ncc4ccc(=O)n(Cc5ccccc5C(F)(F)F)c4n3)cc2)C1 (stereo not shown) [Compound 115] |  |  |  |  | < 1 | < 1 | < 1 | < 1
Cc1ccccc1Cn1c(=O)ccc2cnc(Nc3ccc(N4CCN(C)CC4)cc3)nc21 [Compound 117] |  |  |  |  | < 1 | < 1 | < 1 | < 1
Cc1cccc(O)c1Cn1c(=O)ccc2cnc(Nc3ccc(N4CCN(C)CC4)cc3)nc21 [Compound 119] |  |  |  |  | 1 to 10 | 1 to 10 | < 1 | < 1
CN1CCN(c2ccc(Nc3ncc4ccc(=O)n(Cc5ccccc5-c5ncno5)c4n3)cc2)CC1 [Compound 127] |  |  |  |  | 1 to 10 | 1 to 10 | 1 to 10 | < 1
O=c1ccc2cnc(Nc3ccc(N4CCNCC4)c(F)c3)nc2n1Cc1ccccc1-c1ncno1 [Compound 132] |  |  |  |  | 1 to 10 | 1 to 10 | 1 to 10 | < 1
CN1CCN(c2ccc(Nc3ncc4ccc(=O)n(Cc5c(F)cccc5[S+](C)[O-])c4n3)cc2)CC1 (stereo not shown) [Compound 139] |  |  |  |  | < 1 | 1 to 10 | 1 to 10 | < 1
O=c1c(-c2ccccc2)cc2cnc(Nc3ccc(NC4CCCNC4)cc3)nc2n1Cc1ccccc1C(F)(F)F (stereo not shown) [Compound 167] |  |  |  |  | < 1 | < 1 | 1 to 10 | < 1
CN1CCCC(Nc2ccc(Nc3ncc4ccc(=O)n(Cc5ccccc5C(F)(F)F)c4n3)cc2)C1 (stereo not shown) [compound 61] | < 1 | < 1 | < 1 | < 1 |  |  |  | 
O=c1ccc2cnc(Nc3ccc(N4CCNCC4)cc3)nc2n1C1CCCc2ccccc21 (stereo not shown) [compound 61] |  |  |  |  | 1 to 10 | 1 to 10 | 1 to 10 | 1 to 10
O=c1c(-c2ccccc2)cc2cnc(Nc3ccc(NC4CCCNC4)cc3)nc2n1Cc1ccccc1C(F)(F)F (stereo not shown) [compound 95] | < 1 | < 1 | 1 to 10 | < 1 |  |  |  | 
